# Where “and” joins values, the source holds several entries; their conditions need not be identical. Equal entries are not always repeated.
# Target: Genome polyprotein (dengue virus type 2, UniProt P29990)
# Assay type: functional, Thailand/16681/1984
# Chain of Genome polyprotein (P29990 1346-1475 limits assumed): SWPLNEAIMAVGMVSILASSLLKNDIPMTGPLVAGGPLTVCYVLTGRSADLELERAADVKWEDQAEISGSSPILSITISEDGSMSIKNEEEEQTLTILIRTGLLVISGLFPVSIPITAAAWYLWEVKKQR
# Chain of Genome polyprotein (P29990 1476-2093 limits assumed): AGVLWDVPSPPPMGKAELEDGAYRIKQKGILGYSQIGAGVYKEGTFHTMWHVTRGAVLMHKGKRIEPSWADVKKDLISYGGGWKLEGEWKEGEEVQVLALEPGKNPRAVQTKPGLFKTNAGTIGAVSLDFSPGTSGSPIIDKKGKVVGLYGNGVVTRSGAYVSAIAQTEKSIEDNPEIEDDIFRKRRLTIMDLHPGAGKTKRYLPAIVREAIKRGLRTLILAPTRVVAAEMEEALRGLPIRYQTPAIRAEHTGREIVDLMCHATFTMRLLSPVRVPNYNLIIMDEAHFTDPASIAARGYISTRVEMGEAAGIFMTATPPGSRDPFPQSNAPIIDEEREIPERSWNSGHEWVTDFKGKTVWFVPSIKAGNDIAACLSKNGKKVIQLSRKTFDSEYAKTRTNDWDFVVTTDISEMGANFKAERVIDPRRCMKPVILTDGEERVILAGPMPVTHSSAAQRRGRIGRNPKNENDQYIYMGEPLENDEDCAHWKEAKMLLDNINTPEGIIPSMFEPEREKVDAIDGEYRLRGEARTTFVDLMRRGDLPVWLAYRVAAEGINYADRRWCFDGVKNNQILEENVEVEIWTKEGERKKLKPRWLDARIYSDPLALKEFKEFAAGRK
row,SMILES,IC50
1,CC[C@@H](C)c1nc(C)cc(N2CCC(n3ncc(N)c3C(F)(F)F)CC2)n1,> 99.5 µM
2,Cc1cc(C)c([C@@H](NC(=O)OCc2ccccc2)C(=O)Nc2cccc(CN)c2)c(C)c1,> 99.5 µM
3,CCc1cc(COc2ccc(S(=O)(=O)Nc3ccc(Cl)cc3C(=O)O)cc2)no1,45.5 µM
4,O=Cc1ccc(F)c(C(=O)N2CCN(C3=NCCCN3)CC2)c1,> 99.5 µM
5,CCn1cnnc1COc1ccc(S(=O)(=O)Nc2ccc(Cl)cc2C(=O)O)cc1,> 99.5 µM
6,Cc1ocnc1COc1ccc(S(=O)(=O)Nc2ccc(Cl)cc2C(=O)O)cc1,> 99.5 µM
7,COC(=O)[C@@H](C)NC(=O)c1cc(Cl)ccc1NS(=O)(=O)c1ccc(Oc2ccccc2Cl)cc1,39 µM
8,O=C(N[C@@H](C(=O)Nc1ccncc1)c1ccc(OCc2ccccc2)cc1)OCc1ccccc1,> 99.5 µM
9,O=C(O)c1cc(Cl)ccc1NS(=O)(=O)c1ccc(OCc2ccccn2)cc1,> 99.5 µM
10,NCc1cccc(NC(=O)[C@@H](NC(=O)OCc2ccccc2)c2ccc(C(F)(F)F)cc2)c1,64.3 µM
11,CN1CCN(Cc2ccccc2CNC(=O)[C@@H](NC(=O)OCc2ccccc2)c2ccc(OCc3ccccc3)cc2)CC1,> 99.5 µM
12,Cc1ccc2c(c1)CN(C(=O)c1ccc(C3(CN)CC3)cc1)C(C)(C)C2,> 99.5 µM
13,Cc1ncccc1-c1ccc([C@@H](NC(=O)OCc2ccccc2)C(=O)Nc2cccc(CN)c2)cc1,> 99.5 µM
14,O=C(N[C@@H](C(=O)Nc1ccc2c(n1)CNC2)c1ccc(OCc2ccccc2)cc1)OCc1ccccc1,> 99.5 µM
15,O=C(O)c1cc(Cl)cc(F)c1NS(=O)(=O)c1ccc(Oc2ccccc2Cl)cc1,18.6 µM
16,CCOCCNC(=O)c1cc(Cl)ccc1NS(=O)(=O)c1ccc(Oc2ccccc2Cl)cc1,20 µM and 20.5 µM
17,Cn1c(C(=O)N2CCCc3ccc(C(F)F)cc32)cc2c1CCNC2,> 99.5 µM
18,N[C@H]1CC[C@H](CNC(=O)[C@@H](NC(=O)OCc2ccccc2)c2ccc(OCc3ccccc3)cc2)CC1,> 99.5 µM
19,CN(C(=O)c1ccc2c(c1)[C@H](CN)CCC2)C1CCN(CC(F)F)CC1,> 99.5 µM

row,SMILES,IC50
1,Cc1cc(C=O)c(O)c(C(=O)N2CC[C@H](CN(C)C)C2)c1,> 99.5 µM
2,C[C@@H](Oc1ccc(S(=O)(=O)Nc2ccc(Cl)cc2C(=O)O)cc1)c1ccccc1F,8.2 µM
3,Cc1n[nH]c2cc(C(=O)N3CCC(C)(NC(=O)[C@H]4C[C@H](N(C)C)C4)CC3)ccc12,> 99.5 µM
4,O=C(N[C@@H](C(=O)NCc1ccc(CN2CCCC2)cc1)c1ccc(OCc2ccccc2)cc1)OCc1ccccc1,> 99.5 µM
5,O=C(N[C@@H](C(=O)NCc1cccc(CN2CCCCC2)c1)c1ccc(OCc2ccccc2)cc1)OCc1ccccc1,> 99.5 µM
6,NCc1ccccc1C1CCN(C(=O)[C@H]2CCN3CC[C@H]2C3)CC1,> 99.5 µM
7,Cc1ccc([C@@H](NC(=O)OCc2ccccc2)C(=O)Nc2cccc(CN)c2)cc1C,> 99.5 µM
8,CN(C)C(=O)[C@@H](NC(=O)OCc1ccccc1)c1ccc(OCc2ccccc2)cc1,> 99.5 µM
9,O=C(O)c1cc(Cl)ccc1NS(=O)(=O)c1ccc(OCc2cccnc2)cc1,> 99.5 µM
10,C[C@@H](NC(=O)c1cc(Cl)ccc1NS(=O)(=O)c1ccc(Oc2ccccc2Cl)cc1)C(=O)O,> 99.5 µM
11,Cc1cc(CNC(=O)[C@@H](NC(=O)OCc2ccccc2)c2ccc(OCc3ccccc3)cc2)cc(C)n1,> 99.5 µM
12,O=C(N[C@@H](C(=O)Nc1ccccn1)c1ccc(OCc2ccccc2)cc1)OCc1ccccc1,> 99.5 µM
13,NCc1cccc(NC(=O)[C@H]2c3ccc(Br)cc3CCN2C(=O)OCc2ccccc2)c1,> 99.5 µM
14,CN1CCN(Cc2cccc(CNC(=O)[C@@H](NC(=O)OCc3ccccc3)c3ccc(OCc4ccccc4)cc3)c2)CC1,> 99.5 µM
15,CCc1ccc([C@@H](NC(=O)OCc2ccccc2)C(=O)Nc2cccc(CN)c2)cc1,> 99.5 µM
16,NCc1cccc(NC(=O)[C@@H](NC(=O)OCc2ccccc2)c2ccc(-c3cccc4c3CCO4)cc2)c1,27.8 µM
17,Nc1ccc(CNC(=O)[C@@H](NC(=O)OCc2ccccc2)c2ccc(OCc3ccccc3)cc2)nc1,> 99.5 µM
18,NCc1cccc(NC(=O)[C@@H](NC(=O)OCc2ccccc2)c2ccc(-c3cccc(F)c3)cc2)c1,8.05 µM and 6.08 µM and 6.21 µM

# From ChEMBL document CHEMBL5604063, “ASAP - DENV-2 NS2B-NS3 protease fluorescence dose response” (2024)
